Earlier results on two compounds are cited in paper PMC4258163 (Bioorganic & medicinal chemistry letters, 2014).

Structures are written as SMILES.

Data set [1] concerns animal model of anxiety. Conditions: versus selective FAAH or TRPV1 inhibitors.
For data set [2] the following is noted: systemic administration, mice.
Data set [3] concerns osteoarthritis pain.

As for `CCCCC/C=C\C/C=C\C/C=C\C/C=C\CCCC(=O)NCCc1c[nH]c2ccc(O)cc12` [AA-5-HT, N-arachidonoyl serotonin], the “Effectiveness in an animal model of anxiety” value in data set [1] was “more effective”. Also, the Hyperthermia entry in data set [2] is “did not cause hyperthermia”.
In the case of `O=C(Nc1cccnn1)N1CCC(=Cc2cccc(Oc3ccc(C(F)(F)F)cn3)c2)CC1` [PF-04457845], the “excess of anandamide in the blood of patients” value in data set [3] (patients treated with the inhibitor) is “greater than 10 fold”. Moreover, the “Efficacy in treating osteoarthritis pain” value in data set [3] (phase II clinical trial, compared with naproxen) is “lack of efficacy”.
